From the supplement of paper PMC10307832

Legend:
Test in all cases: relative viability (nuclei count vs DMSO), 5 days (fraction); higher = more cells survive
Elesclomol + Crizotinib = compound: CN(NC(=O)CC(=O)NN(C)C(=S)c1ccccc1)C(=S)c1ccccc1 [Elesclomol] + C[C@@H](Oc1cc(-c2cnn(C3CCNCC3)c2)cnc1N)c1c(Cl)ccc(F)c1Cl [Crizotinib] (partner 1 µM)
Procedure, shortened: (§1)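 Relative viability equals treated-well nuclei counts divided by vehicle-well nuclei counts. Counts came from 4× images of lung cancer cell lines grown in 1536-well plates for 5 days after pin-tool dosing on the day after seeding. Dosing used one drug alone or a fixed anchor-drug dose plus five library-drug doses (not always all listed) in √10 steps, and values are medians of duplicate plates.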

Elesclomol + Pictilisib = compound: CN(NC(=O)CC(=O)NN(C)C(=S)c1ccccc1)C(=S)c1ccccc1 [Elesclomol] + CS(=O)(=O)N1CCN(Cc2cc3nc(-c4cccc5[nH]ncc45)nc(N4CCOCC4)c3s2)CC1 [Pictilisib] (partner 1 µM)
Procedure, shortened: as §1

Elesclomol + Alpelisib = compound: CN(NC(=O)CC(=O)NN(C)C(=S)c1ccccc1)C(=S)c1ccccc1 [Elesclomol] + Cc1nc(NC(=O)N2CCC[C@H]2C(N)=O)sc1-c1ccnc(C(C)(C)C(F)(F)F)c1 [Alpelisib] (partner 2 µM)
Procedure, shortened: as §1

Elesclomol + Olaparib = compound: CN(NC(=O)CC(=O)NN(C)C(=S)c1ccccc1)C(=S)c1ccccc1 [Elesclomol] + O=C(c1cc(Cc2n[nH]c(=O)c3ccccc23)ccc1F)N1CCN(C(=O)C2CC2)CC1 [Olaparib] (partner 8 µM)
Procedure, shortened: as §1

Elesclomol + Linsitinib = compound: CN(NC(=O)CC(=O)NN(C)C(=S)c1ccccc1)C(=S)c1ccccc1 [Elesclomol] + C[C@]1(O)C[C@@H](c2nc(-c3ccc4ccc(-c5ccccc5)nc4c3)c3c(N)nccn32)C1 [Linsitinib] (partner 1 µM)
Procedure, shortened: as §1

Elesclomol + Lapatinib = compound: CN(NC(=O)CC(=O)NN(C)C(=S)c1ccccc1)C(=S)c1ccccc1 [Elesclomol] + CS(=O)(=O)CCNCc1ccc(-c2ccc3ncnc(Nc4ccc(OCc5cccc(F)c5)c(Cl)c4)c3c2)o1 [Lapatinib] (partner 2 µM)
Procedure, shortened: as §1

Elesclomol + Bortezomib = compound: CN(NC(=O)CC(=O)NN(C)C(=S)c1ccccc1)C(=S)c1ccccc1 [Elesclomol] + CC(C)C[C@H](NC(=O)[C@H](Cc1ccccc1)NC(=O)c1cnccn1)B(O)O [Bortezomib] (partner 0.002 µM)
Procedure, shortened: as §1

Elesclomol + Foretinib = compound: CN(NC(=O)CC(=O)NN(C)C(=S)c1ccccc1)C(=S)c1ccccc1 [Elesclomol] + COc1cc2c(Oc3ccc(NC(=O)C4(C(=O)Nc5ccc(F)cc5)CC4)cc3F)ccnc2cc1OCCCN1CCOCC1 [Foretinib] (partner 0.25 µM)
Procedure, shortened: as §1

Elesclomol + Navitoclax = compound: CN(NC(=O)CC(=O)NN(C)C(=S)c1ccccc1)C(=S)c1ccccc1 [Elesclomol] + CC1(C)CCC(c2ccc(Cl)cc2)=C(CN2CCN(c3ccc(C(=O)NS(=O)(=O)c4ccc(N[C@H](CCN5CCOCC5)CSc5ccccc5)c(S(=O)(=O)C(F)(F)F)c4)cc3)CC2)C1 [Navitoclax] (partner 0.5 µM)
Procedure, shortened: as §1

Elesclomol = compound: CN(NC(=O)CC(=O)NN(C)C(=S)c1ccccc1)C(=S)c1ccccc1 [Elesclomol]
Procedure, shortened: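 Viability here means nuclei in treated wells divided by nuclei in vehicle wells, reported as the median across plates. Only plates with control CV below 25% and at least one doubling passed. Lung cancer cell lines in 1536-well plates were exposed to five √10-spaced library-drug doses for 5 days and counted from 4× Hoechst images in MetaXpress.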

Cell Line | relative viability (Elesclomol + Crizotinib; first compound 0.003162 µM) | relative viability (Elesclomol + Crizotinib; first compound 0.01 µM) | relative viability (Elesclomol + Crizotinib; first compound 0.03162 µM) | relative viability (Elesclomol + Crizotinib; first compound 0.1 µM) | relative viability (Elesclomol + Pictilisib; first compound 0.003162 µM) | relative viability (Elesclomol + Pictilisib; first compound 0.01 µM) | relative viability (Elesclomol + Pictilisib; first compound 0.03162 µM) | relative viability (Elesclomol + Pictilisib; first compound 0.1 µM) | relative viability (Elesclomol + Alpelisib; first compound 0.003162 µM) | relative viability (Elesclomol + Alpelisib; first compound 0.01 µM) | relative viability (Elesclomol + Alpelisib; first compound 0.03162 µM) | relative viability (Elesclomol + Alpelisib; first compound 0.1 µM) | relative viability (Elesclomol + Olaparib; first compound 0.003162 µM) | relative viability (Elesclomol + Olaparib; first compound 0.01 µM) | relative viability (Elesclomol + Olaparib; first compound 0.03162 µM) | relative viability (Elesclomol + Olaparib; first compound 0.1 µM) | relative viability (Elesclomol + Linsitinib; first compound 0.003162 µM) | relative viability (Elesclomol + Linsitinib; first compound 0.01 µM) | relative viability (Elesclomol + Linsitinib; first compound 0.03162 µM) | relative viability (Elesclomol + Linsitinib; first compound 0.1 µM) | relative viability (Elesclomol + Lapatinib; first compound 0.003162 µM) | relative viability (Elesclomol + Lapatinib; first compound 0.01 µM) | relative viability (Elesclomol + Lapatinib; first compound 0.03162 µM) | relative viability (Elesclomol + Lapatinib; first compound 0.1 µM) | relative viability (Elesclomol + Bortezomib; first compound 0.003162 µM) | relative viability (Elesclomol + Bortezomib; first compound 0.01 µM) | relative viability (Elesclomol + Bortezomib; first compound 0.03162 µM) | relative viability (Elesclomol + Bortezomib; first compound 0.1 µM) | relative viability (Elesclomol + Foretinib; first compound 0.003162 µM) | relative viability (Elesclomol + Foretinib; first compound 0.01 µM) | relative viability (Elesclomol + Foretinib; first compound 0.03162 µM) | relative viability (Elesclomol + Foretinib; first compound 0.1 µM) | relative viability (Elesclomol + Navitoclax; first compound 0.003162 µM) | relative viability (Elesclomol + Navitoclax; first compound 0.01 µM) | relative viability (Elesclomol + Navitoclax; first compound 0.03162 µM) | relative viability (Elesclomol + Navitoclax; first compound 0.1 µM) | relative viability (Elesclomol; 0.003162 µM) | relative viability (Elesclomol; 0.01 µM) | relative viability (Elesclomol; 0.03162 µM) | relative viability (Elesclomol; 0.1 µM)
Calu-6 | 0.501 | 0.222 | 0.247 | 0.121 | 0.573 | 0.239 | 0.164 | 0.111 | 0.727 | 0.243 | 0.229 | 0.127 | 0.477 | 0.219 | 0.177 | 0.121 | 0.737 | 0.223 | 0.285 | 0.153 | 0.602 | 0.276 | 0.3 | 0.12 | 0.787 | 0.322 | 0.16 | 0.155 | 0.511 | 0.15 | 0.0883 | 0.0356 | 0.476 | 0.166 | 0.122 | 0.0729 | 0.768 | 0.317 | 0.304 | 0.138
EBC-1 | 0.18 | 0.199 | 0.151 | 0.135 | 0.335 | 0.17 | 0.156 | 0.148 | 0.733 | 0.354 | 0.268 | 0.206 | 0.655 | 0.544 | 0.487 | 0.291 | 0.892 | 0.614 | 0.484 | 0.227 | 0.239 | 0.183 | 0.177 | 0.157 | 0.497 | 0.436 | 0.208 | 0.156 | 0.11 | 0.1 | 0.0784 | 0.0763 | 0.374 | 0.228 | 0.146 | 0.132 | 0.983 | 0.74 | 0.506 | 0.349
